The structures appear in SMILES notation. A value given as a limit tells only on which side of the number the result lay.

The test system of assay [1] is H1975 cells carrying EGFR T790M mutation. The assay is described as follows: In vivo pharmacodynamic study, mouse H1975 subcutaneous xenograft tumor model. Details: species or system BALB/c nude mice. The note with it: intragastric once daily, day 28, H1975 xenograft. As to the method: In Vivo Pharmacodynamic Study—Mouse H1975 Subcutaneous Xenograft Tumor Model
(§1) BALB/c nude mice were grafted subcutaneously on the left dorsum with 5×10^6 H1975 cells carrying EGFR T790M mutation. After the tumor grew to 100-150 mm^3, the mice were randomly divided into the following groups for intragastric administration once daily: group 1: vehicle control; group 2: compound 511 (60 mg/kg); and group 3: compound 511 (80 mg/kg). The tumor volume was measured twice weekly and at the end of treatment. Tumor growth inhibition of the compound was calculated according to the following equation: tumor growth inhibition (TGI)=1−(tumor volume on day 28 in treatment group−tumor volume on day 1 in treatment group)/(tumor volume on day 28 in vehicle control group−tumor volume on day 1 in treatment group).

For a further assay, the system named is EGFR (del19/T790M/C797S). Description: HTRF inhibitory activity assay against EGFR (del19/T790M/C797S) enzyme. In kind it is biochemical. A digest of the protocol: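 Wild-type or mutant EGFR preincubated with serially diluted compound 10 min at 28 °C, then reacted 40 min at room temperature with biotinylated TK substrate and ATP. Phosphorylation detected by HTRF (Eu-cryptate anti-TK antibody, streptavidin-XL665, 60 min), 665/615 nm ratio; % inhibition and IC50 vs control.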

The next assay concerns the target EGFR (WT) (Homo sapiens, UniProt P00533). Description: HTRF inhibitory activity assay against EGFR (WT) enzyme. It counts as biochemical. The protocol:
(§2) Inhibitory Activity Assay of the Compounds Disclosed Herein Against EGFR (del19/T790M/C797S), EGFR (L858R/T790M/C797S) or EGFR (WT) Enzymes
(§3) The inhibitory effects of the compounds against EGFR (del19/T790M/C797S), EGFR (L858R/T790M/C797S) or EGFR (WT) enzyme activity was determined by using HTRF. The procedures are as follows:
(§4) The WT or mutant EGFR proteins were incubated with a serially diluted compounds at 28° C. for 10 min followed by addition of biotin-labeled general tyrosine kinase (TK) substrate and ATP. The mixture was incubated at room temperature for 40 min for reaction. After the termination of the reaction, an Eu3+-Cryptate-labeled antibody against TK and streptavidin-XL665 were added and the mixture was incubated at room temperature for 60 min. The luminescences at 615 nm and 665 nm were detected and the ratio of 665/615 was calculated to quantify the level of TK substrate phosphorylation. Inhibition % and IC50 of the compounds were calculated relative to the control group.

The test system of assay [2] is PC9 cells with EGFR Del19/T790M/C797S overexpression. The assay is described as follows: In vivo pharmacodynamic study, mouse PC9 (EGFR Del19/T790M/C797S) subcutaneous xenograft tumor model. Details: species or system BALB/c nude mice. The note with it: intragastric once daily, day 28, PC9 (EGFR Del19/T790M/C797S) xenograft. The protocol:
In Vivo Pharmacodynamic Study—Mouse PC9(EGFR Del19/T790M/C797S) Subcutaneous Xenograft Tumor Model
as §1, with “PC9” for “H1975”, “with” for “carrying”, “Del19/T790M/C797S overexpression.” for “T790M mutation.”

For assay [3], the target named is Ba/F3 (EGFR^del19/T790M/C797S) triple-mutant cells (Homo sapiens, UniProt P00533, T790M/C797S, cells depend on it, form not given). The assay is described as follows: Antiproliferative activity against Ba/F3 (EGFR del19/T790M/C797S) triple-mutant cells, Cell Titer Glow. In kind it is cell-based. The note with it: three days after addition of compounds; read-out: Antiproliferative activity BaF3(EGFR^del19/T790M/C797S) IC50. A digest of the protocol: (§5)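 Cells seeded (3000 Ba/F3 del19/T790M/C797S or 2000 A431 per well), compounds added after one day, serially diluted up to 500 nM for Ba/F3 and up to 10 μM for A431. Growth read by Cell Titer Glow after 3 days; IC50 from % growth inhibition.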
Sequence of Ba/F3 (EGFR^del19/T790M/C797S) triple-mutant cells (P00533 with tags, fused parts or gaps DEL746-750/T790M/C797S, form open): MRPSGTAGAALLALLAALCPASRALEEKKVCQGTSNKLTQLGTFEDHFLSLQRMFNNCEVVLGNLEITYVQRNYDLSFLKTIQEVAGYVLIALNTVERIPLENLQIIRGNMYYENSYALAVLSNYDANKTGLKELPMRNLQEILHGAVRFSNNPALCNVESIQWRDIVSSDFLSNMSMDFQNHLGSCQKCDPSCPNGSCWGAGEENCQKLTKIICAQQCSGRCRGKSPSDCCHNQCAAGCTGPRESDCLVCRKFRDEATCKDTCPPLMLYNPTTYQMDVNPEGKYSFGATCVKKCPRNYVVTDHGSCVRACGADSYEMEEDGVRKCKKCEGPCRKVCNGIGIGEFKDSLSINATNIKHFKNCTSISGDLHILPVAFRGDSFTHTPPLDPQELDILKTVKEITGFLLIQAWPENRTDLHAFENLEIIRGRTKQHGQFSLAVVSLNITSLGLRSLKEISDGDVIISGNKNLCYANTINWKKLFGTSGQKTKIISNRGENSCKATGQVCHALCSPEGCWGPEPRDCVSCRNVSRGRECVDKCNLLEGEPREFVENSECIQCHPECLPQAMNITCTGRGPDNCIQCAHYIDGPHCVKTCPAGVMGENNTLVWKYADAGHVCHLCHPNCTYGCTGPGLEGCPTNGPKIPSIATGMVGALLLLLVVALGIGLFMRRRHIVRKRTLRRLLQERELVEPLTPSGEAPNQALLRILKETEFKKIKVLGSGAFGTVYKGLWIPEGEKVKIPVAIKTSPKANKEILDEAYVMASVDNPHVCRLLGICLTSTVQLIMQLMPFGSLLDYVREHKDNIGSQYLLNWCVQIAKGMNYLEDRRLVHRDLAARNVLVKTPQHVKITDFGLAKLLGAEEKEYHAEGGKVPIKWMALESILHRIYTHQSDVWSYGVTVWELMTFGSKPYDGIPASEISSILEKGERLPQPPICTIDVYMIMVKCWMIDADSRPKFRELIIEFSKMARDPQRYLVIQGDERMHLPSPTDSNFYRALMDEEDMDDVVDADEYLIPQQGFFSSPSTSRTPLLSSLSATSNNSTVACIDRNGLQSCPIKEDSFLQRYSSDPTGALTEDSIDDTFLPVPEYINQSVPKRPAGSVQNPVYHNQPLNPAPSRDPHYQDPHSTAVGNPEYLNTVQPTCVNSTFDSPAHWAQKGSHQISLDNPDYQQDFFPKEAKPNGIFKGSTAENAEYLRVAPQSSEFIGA

A further assay addresses EGFR (L858R/T790M/C797S) (Homo sapiens, UniProt P00533, C797S/L858R/T790M). The assay is described as follows: HTRF inhibitory activity assay against EGFR (L858R/T790M/C797S) enzyme. The conditions noted are these: read-out: EGFR (L858R/T790M/C797S) inhibition (%) (0.3 nM compound). It counts as biochemical. As to the method: as §2, §3, §4
In general terms: Time-resolved FRET reads energy transfer from a long-lived donor to a nearby acceptor.

The subject of a further assay is A431 (EGFR WT) cells. Description: Antiproliferative activity against A431 (EGFR WT) cells, Cell Titer Glow. The conditions noted are these: Homo sapiens, A-431, 72 h; three days after addition of compounds; read-out: Antiproliferative activity A431 wild-type (WT) IC50. In kind it is cell-based. A digest of the protocol: as §5

Sequence of EGFR (L858R/T790M/C797S) (P00533 25-1210 T790M/C797S/L858R): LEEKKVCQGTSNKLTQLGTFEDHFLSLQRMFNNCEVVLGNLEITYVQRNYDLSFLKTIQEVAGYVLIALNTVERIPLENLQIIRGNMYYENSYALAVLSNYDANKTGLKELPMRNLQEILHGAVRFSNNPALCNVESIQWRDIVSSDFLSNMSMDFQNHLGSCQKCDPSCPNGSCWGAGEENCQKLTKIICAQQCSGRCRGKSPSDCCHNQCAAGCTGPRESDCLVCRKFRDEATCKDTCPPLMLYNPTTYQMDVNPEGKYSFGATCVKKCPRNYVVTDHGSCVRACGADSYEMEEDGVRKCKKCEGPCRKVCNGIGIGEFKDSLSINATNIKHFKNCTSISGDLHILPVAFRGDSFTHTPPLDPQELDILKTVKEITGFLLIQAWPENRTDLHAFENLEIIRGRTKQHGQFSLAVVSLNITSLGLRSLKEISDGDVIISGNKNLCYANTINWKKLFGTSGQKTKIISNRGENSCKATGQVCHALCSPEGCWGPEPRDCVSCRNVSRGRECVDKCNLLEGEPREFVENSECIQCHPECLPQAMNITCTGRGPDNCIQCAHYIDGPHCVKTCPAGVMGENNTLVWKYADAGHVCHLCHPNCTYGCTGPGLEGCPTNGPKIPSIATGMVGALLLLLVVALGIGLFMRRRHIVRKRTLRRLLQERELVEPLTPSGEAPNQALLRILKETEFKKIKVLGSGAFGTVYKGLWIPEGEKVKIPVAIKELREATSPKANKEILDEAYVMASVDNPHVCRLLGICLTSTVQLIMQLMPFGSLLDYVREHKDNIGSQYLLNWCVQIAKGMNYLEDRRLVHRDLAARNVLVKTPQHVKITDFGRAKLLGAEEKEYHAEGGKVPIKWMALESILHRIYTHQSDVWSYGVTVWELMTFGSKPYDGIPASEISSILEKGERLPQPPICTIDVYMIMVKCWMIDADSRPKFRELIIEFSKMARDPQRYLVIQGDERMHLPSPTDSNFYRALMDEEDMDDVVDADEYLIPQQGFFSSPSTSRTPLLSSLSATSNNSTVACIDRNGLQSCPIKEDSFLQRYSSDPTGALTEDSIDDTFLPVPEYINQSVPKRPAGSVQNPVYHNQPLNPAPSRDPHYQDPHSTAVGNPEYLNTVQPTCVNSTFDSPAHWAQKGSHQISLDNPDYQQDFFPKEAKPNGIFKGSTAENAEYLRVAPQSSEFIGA
Sequence of EGFR (WT) (P00533 25-1210): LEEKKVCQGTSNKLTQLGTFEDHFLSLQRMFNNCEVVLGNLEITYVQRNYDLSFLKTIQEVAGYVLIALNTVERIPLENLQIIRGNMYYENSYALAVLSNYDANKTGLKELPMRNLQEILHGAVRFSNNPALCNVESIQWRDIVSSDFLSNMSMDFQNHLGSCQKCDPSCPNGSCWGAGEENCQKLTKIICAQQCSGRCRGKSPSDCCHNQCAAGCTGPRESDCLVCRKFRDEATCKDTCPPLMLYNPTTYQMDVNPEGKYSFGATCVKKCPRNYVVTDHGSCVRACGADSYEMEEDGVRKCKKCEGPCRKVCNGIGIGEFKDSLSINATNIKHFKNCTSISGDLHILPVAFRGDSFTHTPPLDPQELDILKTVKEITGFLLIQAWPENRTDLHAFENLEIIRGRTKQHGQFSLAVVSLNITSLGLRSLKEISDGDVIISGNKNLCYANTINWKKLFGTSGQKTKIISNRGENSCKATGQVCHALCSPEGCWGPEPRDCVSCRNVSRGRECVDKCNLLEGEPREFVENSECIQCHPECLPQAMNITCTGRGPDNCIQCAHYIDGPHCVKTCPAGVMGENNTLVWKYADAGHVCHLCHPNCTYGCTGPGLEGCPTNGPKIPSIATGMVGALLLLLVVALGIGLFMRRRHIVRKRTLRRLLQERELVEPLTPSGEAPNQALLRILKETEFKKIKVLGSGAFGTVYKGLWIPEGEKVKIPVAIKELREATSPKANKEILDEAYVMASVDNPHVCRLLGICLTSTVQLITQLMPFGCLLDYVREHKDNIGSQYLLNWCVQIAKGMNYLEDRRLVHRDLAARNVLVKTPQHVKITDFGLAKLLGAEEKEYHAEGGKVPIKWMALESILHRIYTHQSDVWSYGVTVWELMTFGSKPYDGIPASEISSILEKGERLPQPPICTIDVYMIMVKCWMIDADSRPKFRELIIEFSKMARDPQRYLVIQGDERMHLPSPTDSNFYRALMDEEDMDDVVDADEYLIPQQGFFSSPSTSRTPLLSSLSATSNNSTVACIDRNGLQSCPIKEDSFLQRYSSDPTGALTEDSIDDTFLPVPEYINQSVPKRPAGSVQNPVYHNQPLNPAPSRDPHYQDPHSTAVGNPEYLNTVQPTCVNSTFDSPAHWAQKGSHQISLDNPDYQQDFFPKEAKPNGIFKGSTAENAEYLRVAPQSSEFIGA

As for `CN1CCN(C2CCN(c3ccc(Nc4nc(NC5CCOCC5)c(-c5cccc6[nH]ccc56)nc4C(N)=O)cc3)CC2)CC1` [compound 511, 6-(1H-indol-4-yl)-3-((4-(4-(4-methylpiperazin-1-yl)piperidin-1-yl)phenyl)amino)-5-((tetrahydro-2H-pyran-4-yl)amino)pyrazine-2-carboxamide], the “TGI (tumor growth inhibition)” value in assay [1] (60 mg/kg) is 99%; in assay [1] (80 mg/kg), 104%; in assay [2] (60 mg/kg) it was 87.41%; in assay [2] (80 mg/kg), 93.17%. Also, the “EGFR (del19/T790M/C797S) inhibition (%) (0.3 nM compound)” value with EGFR (del19/T790M/C797S) is given as “+++ (+++ indicates an inhibition greater than 50%.)”. The results for the IC50 at EGFR (WT) and with A431 (EGFR WT) cells were 2.82 nM and 60 nM, respectively. The GI50 in assay [3] was 9 nM. For the same compound, at EGFR (L858R/T790M/C797S), the inhibition at 0.0003 µM was above 50%.

Broadly, the IC50 is the concentration that inhibits the measured activity by half.

(Values after patent US12600714B2, “Substituted pyrazinecarboxamide compounds for treating diseases related to EGFR mutation” (WIGEN BIOMEDICINE TECHNOLOGY (SHANGHAI) CO., LTD., priority 2020, dated 2026).)
